The record followed here is patent US7282492B2, “Insecticidal composition having improved storage stability” (priority 2001, dated 2007).

Molecules are shown by their SMILES.

This data set in a line: Storage stability of Dimethoate emulsifiable concentrates Ia, Ib, Ic (Example 1). The format is physicochemical. The following applies: stored 14 days at 54° C.; Table 1. The procedure: Three emulsifiable concentrates (Ia, Ib and Ic) containing. Dimethoate were prepared by mixing the components listed below in the amounts stated. Said amounts are parts by weight.
The formulations Ia and Ib are not according to the invention but serve as comparison examples to formulation Ic (according to the invention).
The formulations were stored at different temperatures for various periods of time, whereupon the pro rata share of Dimethoate degradation was determined.

As to `O=C1C=CC(=O)O1` [maleic anhydride], the “Stabilization of Dimethoate relative to acetic anhydride” value is reported as “twice as effectively”.
